{"source": "patent US20230303504A1", "about": "“CRYSTALLINE SALTS OF TIZOXANIDE AND 2-HYDROXY-N-(5-CHLORO-1,3-THIAZOL-2-YL)BENZAMIDE (RM-4848) WITH ETHANOLAMINE, MORPHOLINE, PROPANOLAMINE, PIPERAZINE AND N-METHYLPIPERAZINE” (priority 2020, published 2023)", "key": {"physchem [1]": {"test": "physchem", "type": "physicochemical", "description": "The appropriate amine is heated with an equimolar amount of either tizoxanide or RM4848 in methanol until a clear solution is obtained. Any small amounts of undissolved solid are removed by filtration. On cooling, the desired salt may crystallize immediately; addition of an equal volume of a solvent, such as diethyl ether (for the tizoxanide salts) or concentration to a small volume, then addition of excess ether (for salts of RM4848), may be used to obtain solid products. In general the salts of RM4848 are more soluble under the above conditions. All the salts are more soluble in water than the parent thiazolides.\nThe resulting slurry was filtered without issues; the filtration went easy on a glass sintered funnel. The cake was washed with water (3×2 Veq) and methanol (3×2 Veq). Combining the neutralization step and aqueous washings provide that no HCl remains in the cake. Avoiding residual HCl in the product may be important because it could react with ethanolamine during step 2. Washing the cake with methanol allows for the removal of water. […] This way no Tizoxanide is lost during the washing of the cake; nevertheless, the remaining NTZA is not removed either.\nRM5071 is not soluble in ethyl acetate, but it tends to form a sticky material. This was also observed during a test reaction in pure ethyl acetate. In addition, it was observed that RM5071 is almost soluble in methanol at a concentration of 5 mg/mL."}, "[2]": {"conditions": "in vivo; cited from earlier work"}, "[3]": {"test": "Bioavailability pharmacokinetic study, single oral gavage dose in rats", "type": "in vivo, Sprague-Dawley rats", "conditions": "for maximum concentrations (Cmax) of T (medians): both, Sprague-Dawley", "protocol": "A study was conducted to evaluate the bioavailability of tizoxanide (T) and tizoxanide glucuronide (TG) in plasma following oral administration of a single dose of 90 mg/kg RM-5071, RM-5072 and nitazoxanide by oral gavage to four male and four female Sprague-Dawley rats. Plasma samples were collected at 0.083, 0.167, 0.25, 0.5 1, 2, 6, 12 and 24-hours post-dose. Concentrations of T and TG were determined using mass spectrometry. […] These compounds are rapidly absorbed achieving Cmax within 5 minutes after an oral dose.\nAnimals and treatment. Three groups of four male and four female Sprague-Dawley rats were administered RM-5071, RM-5072 or NTZ as a single oral gavage dose as detailed in the table below:\nNine serial blood samples were obtained from each animal at 0.083, 0.167, 0.25, 0.5 1, 2, 6, 12 and 24-hours post-dose. Derived plasma samples were stored in sodium heparinized tubes at −70° C. or lower until they were shipped on dry ice via overnight courier for analysis of T and TG concentrations by mass spectrometry.\nBecause some animals glucurono-conjugate T faster than others, the extent, rate and variability of absorption of these three compounds using the sum of free and glucurono-conjugated T concentrations at each timepoint were evaluated. To arrive at the concentrations of glucurono-conjugated T, TG concentrations were multiplied by 61% (molecular weight of T=270 divided by molecular weight of TG=441)."}, "[4]": {"test": "Differential scanning calorimetry (DSC)", "type": "physicochemical", "conditions": "10 °C/min under nitrogen; irreversible for RM-5071", "protocol": "Differential scanning calorimetry (DSC) is a thermo-analytical technique in which the difference in the amount of heat required to increase the temperature of a sample versus a reference are measured as a function of temperature. The reference sample should have a well-defined heat capacity over the range of temperatures to be scanned. One application of DSC is studying phase transitions, such as melting, glass transitions, and/or exothermic decompositions. Such measurements provide qualitative and quantitative information about physical and chemical changes of a molecule.\nThe calorimetric analysis was performed by the MCC. For the DSC analysis, amounts between 2.34 to 2.46 mg of the samples RM-5071 and desacetyl-NTZA were placed individually in aluminum hermetic pans and covered with an aluminum lid. The temperature method was: step 1: hold for 10 min at 25° C., and step 2: heat from 25° C. to 400 at 10.00 ° C./min. An additional DSC experiment was performed to determine further crystallinity behavior by performing a heat-cool-heat cycling experiment to RM-5071. Approximately 1.69 mg of the RM-5071sample was placed in an aluminum hermetic pan and covered with an aluminum lid. […]"}, "[5]": {"test": "XRD temperature test (oven heating, then XRD)", "type": "physicochemical", "protocol": "A temperature test was performed in order to determine if any physical and crystallinity changes occurred to the sample RM-5071 upon heating.In order to assess if any change occurred two set of experiments were performed as follows: Experiment A- Two petri dishes were identified as “Fast” and “Slow”. To each petri dish, approximately 2 spatulas of sample RM-5071 were added. Then, the oven was turned on and set to a temperature of-160-165° C. After reaching the temperature, the petri dishes were placed in the oven for 15 minutes. Once the time was completed, the oven was turned off and the “Fast” sample was removed and left to reach room temperature (RT) in the hood. The “Slow” sample was left in the oven to reach RT in a slower manner. The “Slow” sample was removed from the oven, once it reached RT. The samples were analyzed by XRD. Experiment B- The procedure described above was followed at a temperature range of ˜110-120° C. After reaching the temperature, the petri dishes were placed in the oven during 10 minutes. The removal of samples from the oven was followed as previosly described. Afterwards, the samples were analyzed by XRD."}, "physchem [6]": {"test": "physchem", "type": "physicochemical", "conditions": "for solubility: thermodynamic from solid", "protocol": "The apparent solubility of RM-5071 was tested using several solvents, specifically: DMF, DMSO, acetonitrile (ACN), water, ACN/water mixture, methanol, isopropanol, and ethanol. United States Pharmacopeia (USP) classify the solubility regardless of the solvent used, just following defined criteria summarized in Table 10. The solute was initially dissolved in each of the solvents or solvent system at a lmg/mL concentration. If solute remained undissolved, a fresh solution of lower concentration was subsequently prepared until the solid was observed completely dissolved. This concentration limit was estimated as the apparent solubility.\nThe solutions of RM-5071 were prepared, dissolving 10 mg in increasing solvent volumes ranging from 10 mL, 100 mL, to 1000 mL in each of the solvents. According to the visual inspection and observations the apparent solubility of RM-5071 was classified according the 10, as defined by the USP.\nThe solubility studies of RM-5071 were performed in several solvents as specified on Table 11 at room temperature. For the purpose of this chemical characterization report, the terms specified on Table 10 were used to describe the solubility of RM 5071 in different solvents on Table 12"}, "[7]": {"test": "Thermogravimetric analysis (TGA)", "type": "physicochemical", "description": "Thermogravimetric analysis (TGA) is an analytical technique used to determine the thermal stability of a material and its fraction of volatile components by monitoring the weight change that occurs as a substance is heated. As many weight loss curves look similar, the curves may require transformation before results may be interpreted. A derivative weight loss curve can be used to tell the point at which weight loss is most apparent. The analysis is normally carried out in air or in an inert atmosphere such as nitrogen.\nFor the TGA analysis, amounts between 2.0 to 2.6 mg of both RM-5071 and desacetyl-NTZA samples were placed individually in platinum pans. The temperature method was: step 1: equilibrate at 25° C., step 2: heat from 25° C. to 700° C. at 10.00° C./min, step 3: hold for 5 min at 700° C. The analyses were carried out under nitrogen."}, "physchem [8]": {"test": "physchem", "type": "physicochemical", "protocol": "The acid titration was performed by adding 20 mL of a 1 mg/mL RM-5071 solution poured onto a beaker (titrate), the pH of the solution was measured while using a solution of 0.01N HCl as the titrant. The alkaline titration was performed by adding 20 mL of a 1 mg/mL RM-5071 solution were poured onto a beaker, the pH of the solution was measured while adding a solution 0.02 N NaOH as the titrant. The solutions had agitation with a magnetic stirrer during titration and it was stopped during pH measurements.\nThe inflection point was calculated using the second derivative of the experimental curve, the volume for the equivalence point is 5.83 mL of 0.01 N HCl, at a pH =5.99. […] The pKa of a phenolic proton is 9.9 as per Vollhardt, K. P. C.; Schore, N. E., Organic Chemistry; Palgrave Version: Structure and Function. Macmillan International Higher Education: 2014.", "remark": "listed apart in the source"}, "[9]": {"conditions": "single 90 mg/kg oral gavage, 4 male and 4 female rats per group"}, "[10]": {"conditions": "single 90 mg/kg oral gavage, rats"}}, "note": "Where a name gives a salt, the structure may show the parent alone."}
{"smiles": "O=C(Nc1ncc([N+](=O)[O-])s1)c1ccccc1O", "note": "[Desacetyl-NTZA, 2-Hydroxybenzoyl-N-[(5-nitro)thiazol-2-yl]amide]", "values": [{"measurement": "solubility in methanol", "setting": "physchem [1]", "result": "fairly insoluble"}, {"measurement": "solubility in water", "setting": "physchem [1]", "result": "fairly insoluble"}]}
{"smiles": "CC(=O)Oc1ccccc1C(=O)Nc1ncc([N+](=O)[O-])s1", "note": "[NTZ, 2-(acetolyloxy)-N-(5-nitro-2-thiazolyl) benzamide, reference compound]", "values": [{"measurement": "solubility in methanol", "setting": "physchem [1]", "result": "fairly insoluble"}, {"measurement": "solubility in water", "setting": "physchem [1]", "result": "fairly insoluble"}, {"measurement": "plasma half-life", "setting": "[2]", "result": 1.3, "unit": "h"}, {"measurement": "maximum concentrations (Cmax) of T (medians)", "setting": "[3]; rat, in vivo, po, 90 mg/kg", "result": 1700, "unit": "ng/mL"}, {"measurement": "adverse clinical signs", "setting": "[3]; rat, in vivo, po, 90 mg/kg", "result": "No adverse clinical signs were observed"}, {"measurement": "time at which Cmax of T was achieved", "setting": "[3]; rat, in vivo, po, 90 mg/kg", "result": 2, "unit": "h"}]}
{"smiles": "O=C(Nc1ncc([N+](=O)[O-])s1)c1ccccc1O", "note": "[RM-5071, 2-Hydroxybenzoyl-N-[(5-Nitro)Thiazol-2-yl]Amide, Ethanolamine Salt]", "values": [{"measurement": "solubility in ethyl acetate", "setting": "physchem [1]", "result": "not soluble"}, {"measurement": "solubility", "setting": "physchem [1]; organic solvent or mixture", "result": "~5000", "unit": "µg/mL"}, {"measurement": "DSC peak transition temperature (exothermic; solid stable up to)", "setting": "[4]", "result": 163, "unit": "°C"}, {"measurement": "physical and crystallinity changes upon heating", "setting": "[5]; Experiment A: 160-165° C., 15 minutes", "result": "changed from bright yellow to a black powder with beige portions"}, {"measurement": "physical and crystallinity changes upon heating", "setting": "[5]; Experiment B: 110-120° C., 10 minutes", "result": "does not change significantly"}, {"measurement": "Apparent solubility", "setting": "physchem [6]", "result": "very soluble"}, {"measurement": "solubility", "setting": "physchem [6]; aqueous with cosolvent or surfactant or cyclodextrin, Apparent Solubility of RM-5071", "result": "> 1000", "unit": "µg/mL"}, {"measurement": "solubility", "setting": "physchem [6]; aqueous with cosolvent or surfactant or cyclodextrin, Apparent Solubility of RM-5071 (concentration limit)", "result": "> 1000", "unit": "µg/mL"}, {"measurement": "solubility", "setting": "physchem [6]; organic solvent or mixture, Apparent Solubility of RM-5071 (concentration limit)", "result": 33, "unit": "µg/mL"}, {"measurement": "solubility", "setting": "physchem [6]; water, Apparent Solubility of RM-5071 (concentration limit)", "result": "< 5", "unit": "µg/mL"}, {"measurement": "First step Temperature (° C.)", "setting": "[7]; 10 °C/min under nitrogen", "result": "85-160 °C"}, {"measurement": "Second step Temperature(° C.)", "setting": "[7]; 10 °C/min under nitrogen", "result": "160-254 °C"}, {"measurement": "Second step Weight loss (%)", "setting": "[7]; 10 °C/min under nitrogen", "result": 30.93, "unit": "%"}, {"measurement": "Third step Temperature(° C.)", "setting": "[7]; 10 °C/min under nitrogen", "result": "254-700 °C"}, {"measurement": "Third step Weight loss (%)", "setting": "[7]; 10 °C/min under nitrogen", "result": 26.62, "unit": "%"}, {"measurement": "total weight loss", "setting": "[7]; 25 to 700 °C under nitrogen", "result": 77, "unit": "%"}, {"measurement": "pKa", "setting": "physchem [8]", "result": 8.8}, {"measurement": "pH of solution", "setting": "physchem [8]; 1 mg/mL RM-5071 solution, initial", "result": 9.44}, {"measurement": "pH at which full dissolution of the solid is achieved", "setting": "physchem [8]; 1 mg/mL, titration with NaOH", "result": 10.63}, {"measurement": "maximum concentrations (Cmax) of T (medians)", "setting": "[3]; rat, in vivo, po, 90 mg/kg", "result": 4700, "unit": "ng/mL"}, {"measurement": "bioavailability in terms of the maximum concentration compared to NTZA", "setting": "[3]; rat, in vivo", "result": "more bioavailable"}, {"measurement": "mean AUC0-12h relative to NTZ", "setting": "[3]; rat, in vivo", "result": "roughly the same"}, {"measurement": "mean AUC0-12h relative to RM-5072", "setting": "[3]; rat, in vivo", "result": "almost double"}, {"measurement": "adverse clinical signs", "setting": "[3]; [9]", "result": "No adverse clinical signs were observed"}, {"measurement": "plasma concentrations of T and TG (free and glucurono-conjugated T) compared to RM-5072 or NTZ", "setting": "[3]; [10]", "result": "higher"}, {"measurement": "speed of availability of T in plasma compared to NTZ", "setting": "[3]; [10]", "result": "dramatically improve"}, {"measurement": "variability of absorption compared to RM-5072 or NTZ", "setting": "[3]; [10]", "result": "less variability"}]}
{"smiles": "O=C(Nc1ncc([N+](=O)[O-])s1)c1ccccc1O", "note": "[RM-5072, 2-Hydroxybenzoyl-N-[(5-Nitro)Thiazol-2-yl]Amide, Morpholine Salt]", "values": [{"measurement": "maximum concentrations (Cmax) of T (medians)", "setting": "[3]; rat, in vivo, po, 90 mg/kg", "result": 3100, "unit": "ng/mL"}, {"measurement": "adverse clinical signs", "setting": "[3]; [9]", "result": "No adverse clinical signs were observed"}, {"measurement": "speed of availability of T in plasma compared to NTZ", "setting": "[3]; [10]", "result": "dramatically improve"}]}
